The values that follow are results of earlier work, collected in patent US5565430A, “Azaaspartic acid analogs as interleukin-1β converting enzyme inhibitors” (Sterling Winthrop Inc., priority 1994, dated 1996).

Data set [1] has as its system rabbit immune complex colitis. Conditions: animal model of colitis.
The test system of data set [2] is PG-APS model of arthritis in rats.
The subject of data set [3] is patients with rheumatoid arthritis. Conditions: subcutaneous, open-label.
In data set [4] the test system is chronic myelogenous leukemia cells. Conditions: cells removed from leukemia patients.
Data set [5] deals with patients with active rheumatoid arthritis. Conditions: subcutaneous, after three weeks of daily treatment.
In data set [6] the test system is allergic subjects. Conditions: randomized, double-blind, placebo-controlled.

For the molecule “IL-1ra: IL-1 receptor antagonist, naturally occurring”, the “tissue necrosis and inflammatory cells in colon” value in data set [1] was “reduced tissue necrosis and the number of inflammatory cells in the colon”. Moreover, the joint swelling result in data set [2] is “supresses joint swelling”. Also, the “efficacy in rheumatoid arthritis trial” value in data set [3] is “shows efficacy”. The “colony growth of leukemia cells” value in data set [4] is recorded as “inhibit colony growth”.

As for “Antril: The IL-1 receptor antagonist, Antril (Synergen)”, the “antiinflammatory activity in rheumatoid arthritis patients” value in data set [5] is “decrease in joint swelling and less disease activity”.

B1: Soluble IL-1 receptor: Soluble IL-1 receptor (protein, UniProt P14778 18-336, looked up)
extracellular domain: LEADKCKEREEKIILVSSANEIDVRPCPLNPNEHKGTITWYKDDSKTPVSTEQASRIHQHKEKLWFVPAKVEDSGHYYCVVRNSSYCLRIKISAKFVENEPNLCYNAQAIFKQKLPVAGDGGLVCPYMEFFKNENNELPKLQWYKDCKPLLLDNIHFSGVKDRLIVMNVAEKHRGNYTCHASYTYLGKQYPITRVIEFITLEENKPTRPVIVSPANETMEVDLGSQIQLICNVTGQLSDIAYWKWNGSVIDEDDPVLGEDYYSVENPANKRRSTLITVLNISEIESRFYKHPFTCFAKNTHGIDAAYIQLIYPVTNFQK
modifications: extracellular domain
Consider B1, for which the “cutaneous late-phase allergic reaction” value in data set [6] is reported as “significantly reduces clinically the cutaneous late-phase allergic reaction”. Moreover, the “colony growth of leukemia cells” value in data set [4] is given as “inhibit colony growth”.
